From patent US20080305111A1, “Anti-C35 antibodies for treating cancer” (VACCINEX, INC., priority 2006, published 2008)
Read-outs that look alike come from different tables or passages of the source.

Experiments:
[1] = tested on: rabbit anti-human C35 polyclonal antibody; assay: ELISA of rabbit C35 immune serum on plates coated with C35 15-mer peptides; format: binding
[2] = cited from earlier work
[3] = Toxicity of chemotherapy, radioimmunotherapy and combination therapy by weight loss (FIG. 8); parameters: species or system Swiss nude mice; settings: Swiss nude, mouse, in vivo, intravenous; together with Leucovorin at 120 mg/kg
[4] = tested on: 21MT1 tumor cells; assay: C35 surface staining following drug induced apoptosis (flow cytometry); format: cell-based
Protocol: 24 hours following treatment with 0.5 uM Taxol™, 21MT1 tumor cells were stained with annexin V-FITC, propidium iodide, and with either 100 ng anti-C35 antibody 1F2 (dark line) or isotype control (grey fill) antibody. Both antibodies were directly conjugated to Alexa-647. Histograms were gated on the cells undergoing apoptosis (annexinV positive/PI negative). Antibodies were pre-incubated with PAB buffer (FIG. 3A), 100-fold molar excess recombinant C35 protein (FIG. 3B), or 100-fold molar excess β-galactosidase protein (FIG. 3C).
A line of continuously growing breast tumor cells that express the C35 tumor antigen was either treated with 6 ug/ml mitomycin C or left untreated. After continued in vitro culture for 48 hours to allow apoptosis to develop, cells were harvested, washed and stained with 50 ng of 1F2 monoclonal anti-C35 antibody or a mouse IgG antibody control each conjugated to the fluorescent dye Alexa 647. Following 50 minutes incubation at 25° C., cells were stained with Annexin V and propidium iodide (PI) using a standard commercial kit (Pharmingen). Cells were analyzed for staining with Annexin V, propidium iodide and Alexa 647 by flow cytometry employing standard protocols.

[5] = tested on: Colau.C35 tumor cells; assay: Combination radioimmunotherapy and chemotherapy, second experiment (FIG. 6, Table 6); format: in vivo, Swiss nude mice
Protocol: Swiss nude mice were grafted with Colau.C35 cells on day 0. Chemotherapy: Cisplatin administered at 2 mg/kg i.v. on days 15 & 18; 5FU/LV administered at 180/120 mg/kg i.v. on day 18.
Cispaltin was administered on days 15 and 18 following tumor graft. […] Tumor growth was followed for up to 10 weeks.

[6] = 14 μg/ml peptide coated plates, 100 ng/ml primary antibody
[7] = 40 μg/ml peptide coated plates, 1 μg/ml primary antibody
[8] = literature values, schedule as in table
[9] = non-toxic dose at indicated schedule (dose of column Dose + RIT)

| Molecule | Absorbance @ 450-570 nm [1, 6] | Absorbance @ 450-570 nm [1, 7] | also measured |
| --- | --- | --- | --- |
| PPEEVEPGSGVRIVV [P13] | 0.385 | 2.522 | – |
| O=C1[O][Pt]2([NH][C@@H]3CCCC[C@H]3[NH]2)[O]C1=O [Oxaliplatin] | – | – | Maximum Tolerated Dose [2, 8]: 5 mg/kg |
| SGEPGQTSVAPPPEE [P2] | 0.108 | 1.227 | – |
| ETLEKITNSRPPAVI [P100] | 0.017 | 0.124 | – |
| PEEVEPGSGVRIVVE [P14] | 0.127 | 0.972 | – |
| GEPGQTSVAPPPEEV [P3] | 1.458 | 3.349 | – |
| EIEINGQLVFSKLEN [P66] | 0.028 | 0.182 | – |
| PPPEEVEPGSGVRIV [P12] | 0.836 | – | – |
| LIEAIRRASNGETLE [P89] | 0.015 | 0.053 | – |
| TLEKITNSRPPAVIL [P101] | 0.472 | 2.519 | – |
| EEVEPGSGVRIVVEY [P15] | 0.039 | 0.334 | – |
| QTSVAPPPEEVEPGS [P7] | 2.635 | 3.388 | – |
| EKDLIEAIRRASNGE [P86] | 0.023 | 0.166 | – |
| SVAPPPEEVEPGSGV [P9] | 2.31 | 3.367 | – |
| EPGQTSVAPPPEEVE [P4] | 1.254 | 3.282 | – |
| O=c1[nH]cc(F)c(=O)[nH]1 [5-FluoroUracil] | – | – | MTD [3]: 180 mg/kg |
| PGQTSVAPPPEEVEP [P5] | 2.719 | 3.383 | – |
| GAFEIEINGQLVFSK [P63] | 0.079 | 0.557 | – |
| Nc1ccn([C@@H]2O[C@H](CO)[C@@H](O)C2(F)F)c(=O)n1 [Gemcitabine] | – | – | Maximum Tolerated Dose [2, 9]: No toxicity ^5 |
| FEIEINGQLVFSKLE [P65] | 0.043 | 0.269 | – |
| IEAIRRASNGETLEK [P90] | 0.04 | 0.403 | – |
| YEKDLIEAIRRASNG [P85] | 0.024 | 0.179 | – |
| EVEPGSGVRIVVEYA [P16] | 0.027 | 0.172 | – |
| O=P1(N(CCCl)CCCl)NCCCO1 (centres unmarked) [Cyclophosphamide] | – | – | Maximum Tolerated Dose [2, 9]: No toxicity ^2 |

| Molecule | Absorbance @ 450-570 nm [1, 6] | Absorbance @ 450-570 nm [1, 7] | also measured |
| --- | --- | --- | --- |
| VAPPPEEVEPGSGVR [P10] | 1.736 | 3.407 | – |
| MSGEPGQTSVAPPPE [P1] | 0.257 | – | – |
| DLIEAIRRASNGETL [P88] | 0.025 | 0.135 | – |
| RRASNGETLEKITNS [P94] | 0.061 | 0.526 | – |
| RASNGETLEKITNSR [P95] | 0.062 | 0.462 | – |
| GETLEKITNSRPPAV [P99] | 0.026 | 0.18 | – |
| SNGETLEKITNSRPP [P97] | 0.046 | 0.373 | – |
| CC(=O)O[C@H]1C(=O)[C@@]2(C)[C@H]([C@H](OC(=O)c3ccccc3)[C@]3(O)C[C@H](OC(=O)[C@H](O)[C@@H](NC(=O)c4ccccc4)c4ccccc4)C(C)=C1C3(C)C)[C@]1(OC(C)=O)CO[C@@H]1C[C@@H]2O [Taxol, paclitaxel] | – | – | induction of apoptosis and C35 surface exposure ([4]; 0.5 uM, 24 hours, stained with 1F2): induces apoptosis, resulting in exposure of C35 on the surface of apoptotic tumor cells; Maximum Tolerated Dose [2, 9]: No toxicity ^2 |
| CO[C@@]12[C@H](COC(N)=O)C3=C(C(=O)C(C)=C(N)C3=O)N1C[C@@H]1N[C@@H]12 [mitomycin C] | – | – | C35 surface staining of treated cells undergoing apoptosis ([4]; 6 ug/ml, 48 hours, PI negative, Annexin V positive cells): clearly differentially stained with anti-C35 antibodies as compared to isotype control antibody |
| NGETLEKITNSRPPA [P98] | 0.035 | 0.213 | – |
| TSVAPPPEEVEPGSG [P8] | 0.059 | 0.394 | – |
| AIRRASNGETLEKIT [P92] | 0.04 | 0.267 | – |
| EAIRRASNGETLEKI [P91] | 0.023 | 0.144 | – |
| TGAFEIEINGQLVFS [P62] | 0.023 | 0.107 | – |
| PYEKDLIEAIRRASN [P84] | 0.037 | 0.391 | – |
| APPPEEVEPGSGVRI [P11] | 1.526 | 3.317 | – |
| GGFPYEKDLIEAIRR [P81] | 0.032 | 0.204 | – |
| AFEIEINGQLVFSKL [P64] | 0.055 | 0.423 | – |
| NGGFPYEKDLIEAIR [P80] | 0.018 | 0.1 | – |
| GQTSVAPPPEEVEPG [P6] | 2.483 | 3.381 | – |
| FPYEKDLIEAIRRAS [P83] | 0.025 | 0.19 | – |
| IRRASNGETLEKITN [P93] | 0.051 | 0.389 | – |
| GFPYEKDLIEAIRRA [P82] | 0.02 | 0.18 | – |
| N.N.[Cl][Pt][Cl] [Cisplatin] | – | – | TDD = Tumor doubling delay ([5]; T − C/tumor volume doubling time of untreated): 0.66; LCK = Log Cell Kill ([5]; TDD/3.32): 0.20; Colau.C35 tumor growth (FIG. 6) ([5]; cisplatin 2 mg/kg days 15, 18, 5FU/LV 180/120 mg/kg day 18, 300 μCi ^131I-1B3 day 21): some inhibition; T − C: difference in time for treated and control tumors to reach a given volume ([5]; volume 1200 mm^3): 5 days; Maximum Tolerated Dose [2, 8]: 4 mg/kg |
